Laboratory results reported in patent US12214012B2, “Combined preparations for the treatment of cancer” (IMMUTEP S.A.S., priority 2013, dated 2025).
Where a name gives a salt, the structure may show the parent alone.

Assays:
lymphoma cell line EL4 [1] = test: Murine syngeneic skin tumour model, EL4, carboplatin and oxaliplatin (Example 3); type: in vivo; conditions: EL4 s.c. in C57Bl/6 mice; IMP321 50 μg s.c. D7-D25; Carboplatin 16 mg/kg i.p. D6, D10, D13, D17; Oxaliplatin 3 mg/kg i.p. D6, D10; FIG. 3A/3B
Description: (§1) A murine syngeneic skin tumour model was established using the lymphoma cell line EL4.
The minimum tumorigenic dose (MTD) of tumour cells (5×10^5 cells) was implanted by s.c. injection in the right flank of C57Bl/6 mice (5 weeks old) at Day 0. The mice were injected with phosphate buffered saline (PBS) (Group 1 mice), IMP321 (Group 2 mice), IMP321 and Carboplatin (Group 3 mice), Carboplatin alone (Group 4 mice), IMP321 and Oxaliplatin (Group 5 mice), or Oxaliplatin alone (Group 6 mice) according to the following schedule: • Group 1 (10 mice): negative control: PBS s.c. injection at D7, D11, D14, D18, D21 and D25; • Group 2 (10 mice): IMP321 s.c. injection (50 μg, 1.9 mg/m) at D7, D11, D14, D18, D21 and D25; • Group 3 (9 mice): IMP321 s.c. injection (50 μg, 1.9 mg/ml) at D7, D11, D14, D18, D21 and D25, plus Carboplatin i.p. injection (288 μg, 16 mg/kg) at D6, D10, D13 and D17; • Group 4 (10 mice): Carboplatin i.p. injection (288 μg, 16 mg/kg) at D6, D10, D13 and D17; • Group 5 (10 mice): IMP321 s.c. injection (50 μg, 1.9 mg/m) at D7, D11, D14, D18, D21 and D25, plus Oxaliplatin i.p. injection (54 μg, 3 mg/kg) at D6 and D10; • Group 6 (10 mice): Oxaliplatin i.p. injection (54 μg, 3 mg/kg) at D6 and D10.
Tumour growth was monitored twice a week by measuring two perpendicular tumor diameters using calipers. […] Tumour size means the cross-sectional area in mm^2.

[2] = system: Mouse colon 38 (C38) tumor fragments; test: C38 colon adenocarcinoma tumor model (Example 4); conditions: C38 fragments s.c. in C57BL/6 mice; oxaliplatin 5 mg/kg IV Q7Dx4; IMP321 20 μg SC Q7Dx4, day after oxaliplatin; FIG. 4A
Description: The effect of combined treatment with the LAG-3 derivative IMP321 (also referred to as hLAG-3Ig) and oxaliplatin in the C38 colon adenocarcinoma tumor model was evaluated. In this model, tumor fragments are surgically implanted subcutaneously.
Mouse colon 38 (C38) tumor fragments were obtained frozen from the Division of Cancer Treatment, Tumor Repository, NCI (Frederick, MD, USA). The C38 fragments were stored frozen in DMSO/SVF/RPMI 1640 medium (10/10/80) in liquid nitrogen until use. The fragments were thawed at 37° C. for 5 min, rinsed twice in RPMI 1640 medium before subcutaneous (SC) implantation in mice. The C38 tumors were serially transplanted in C57Bl/6 mice.
Small C38 tumor fragments (20-30 mg) were subcutaneously implanted in the right flank of 12 C57BL/6 mice. When tumor sizes reached 500-1000 mm^3, tumors were surgically excised and small C38 tumor fragments (20-30 mg) were subcutaneously implanted in the right flank of recipient C57BL/6 mice.
Treatment started when the tumors reached a mean volume of 200-300 mm^3. […]

lymphoma cell line EL4 [3] = test: Murine syngeneic skin tumour model, EL4 (Example 2); type: in vivo; conditions: EL4 s.c. in C57Bl/6 mice; IMP321 50 μg s.c. D7-D24; Carboplatin 16 mg/kg i.p. D6, D10, D13, D17; FIG. 2
Description: as §1
The minimum tumorigenic dose (MTD) of tumour cells (5×10^5 cells) was implanted by s.c. injection in the right flank of C57Bl/6 mice (5 weeks old) at Day 0. The mice were injected with phosphate buffered saline (PBS) (Group 1 mice), IMP321 (Group 2 mice), IMP321 and Carboplatin (Group 3 mice), or Carboplatin alone (Group 4 mice) according to the following schedule: • Group 1 (8 mice): negative control: PBS s.c. injection at D7, D11, D14, D19, D21 and D24; • Group 2 (8 mice): IMP321 s.c. injection (50 μg, 3.96 mg/ml) at D7, D11, D14, D19, D21 and D24; • Group 3 (8 mice): IMP321 s.c. injection (50 μg, 3.96 mg/m) at D7, D11, D14, D19, D21 and D24, plus Carboplatin i.p. injection (288 μg, 16 mg/kg) at D6, D10, D13 and D17; • Group 4 (8 mice): Carboplatin i.p. injection (288 μg, 16 mg/kg) at D6, D10, D13 and D17.
Tumour growth was monitored twice a week by measuring two perpendicular tumor diameters using calipers. Tumour size means the cross-sectional area in mm^2.

[4] = system: colorectal adenocarcinoma cell line CT26; test: Murine syngeneic skin tumour model, CT26 (Example 1); type: in vivo; conditions: CT26 s.c. in BALB/c mice; IMP321 50 μg s.c. D11-D28; Topotecan 2.5 mg/kg i.p. D10, D13, D17; FIG. 1
Description: A murine syngeneic skin tumour model was established using the colorectal adenocarcinoma cell line CT26.
One quarter of the minimum tumorigenic dose (MTD) of tumour cells (0.5×10^5 cells) was implanted by subcutaneous (s.c.) injection in the right flank of four groups of BALB/c mice (5 weeks old) at Day 0. The mice were injected with phosphate buffered saline (PBS) (Group 1 mice), the LAG-3 derivative IMP321 (Group 2 mice), IMP321 and Topotecan (Group 3 mice), or Topotecan alone (Group 4 mice) according to the following schedule: • Group 1 (8 mice): negative control: PBS s.c. injection at D11, D14, D18, D21, D25 and D28; • Group 2 (7 mice): IMP321 s.c. injection (50 μg, 1.9 mg/ml) at D11, D14, D18, D21, D25 and D28; • Group 3 (8 mice): IMP321 s.c. injection (50 μg, 1.9 mg/ml) at D11, D14, D18, D21, D25 and D28, plus Topotecan i.p. injection (45 μg, 2.5 mg/kg) at D10, D13 and D17; • Group 4 (8 mice): Topotecan i.p. injection (45 μg, 2.5 mg/kg) at D10, D13 and D17.
Tumour growth was monitored twice a week by measuring two perpendicular tumour diameters using calipers. Tumour size means the cross-sectional area in mm^2.

O=C1[O][Pt]2([NH][C@@H]3CCCC[C@H]3[NH]2)[O]C1=O [Oxaliplatin, [(1R,2R)-cyclohexane-1,2-diamine](ethanedioato-O,O′)platinum(II)]
effect on tumour growth (tumour size, cross-sectional area) (lymphoma cell line EL4 [1]): had an effect
effect on delaying tumor growth [2]: a slight effect

[NH2][Pt]1([NH2])[O]C(=O)C2(CCC2)C(=O)[O]1 [carboplatin, cis-diammine(cyclobutane-1,1-dicarboxylate-O,O′)platinum(I)]
effect on tumour growth (tumour size, cross-sectional area) (lymphoma cell line EL4 [3]): very little effect, if any
effect on tumour growth (tumour size, cross-sectional area) (lymphoma cell line EL4 [1]): some effect

CC[C@@]1(O)C(=O)OCc2c1cc1n(c2=O)Cc2cc3c(CN(C)C)c(O)ccc3nc2-1 [topotecan, (S)-10-[(dimethylamino)methy]-4-ethyl-4,9-dihydroxy-1H-pyrano[3′,4′:6,7]indolizino[1,2-b] quinoline-3,14(4H,12H)-dione monohydrochloride]
effect on tumour growth (tumour size, cross-sectional area) [4]: some effect on reducing tumor growth

B1: IMP321: recombinant soluble human LAG-3Ig fusion protein, 200-kDa dimer: extracellular domain of hLAG-3 fused to human IgG1 Fc (protein)
chain: LQPGAEVPVVWAQEGAPAQLPCSPTIPLQDLSLLRRAGVTWQHQPDSGPPAAAPGHPLAPGPHPAAPSSWGPRPRRYTVLSVGPGGLRSGRLPLQPRVQLDERGRQRGDFSLWLRPARRADAGEYRAAVHLRDRALSCRLRLRLGQASMTASPPGSLRASDWVILNCSFSRPDRPASVHWFRNRGQGRVPVRESPHHHLAESFLFLPQVSPMDSGPWGCILTYRDGFNVSIMYNLTVLGLEPPTPLTVYAGAGSRVGLPCRLPAGVGTRSFLTAKWTPPGGGPDLLVTGDNGDFTLRLEDVSQAQAGTYTCHIHLQEQQLNATVTLAIITVTPKSFGSPGSLGKLLCEVTPVSGQERFVWSSLDTPSQRSFSGPWLEAQEAQLLSQPWQCQLYQGERLLGAAVYFTELSSPG
modifications: left off: small tags and cut ends; a dimerising Fc or GST
notes: recombinant soluble human LAG-3Ig fusion protein, 200-kDa dimer: extracellular domain of hLAG-3 fused to human IgG1 Fc
effect on tumour growth (tumour size, cross-sectional area) (lymphoma cell line EL4 [3]): no effect on tumour growth
effect on tumour growth (tumour size, cross-sectional area) (lymphoma cell line EL4 [1]): little, if any effect
effect on delaying tumor growth [2]: no effect on delaying tumor growth
effect on tumour growth (tumour size, cross-sectional area) [4]: no effect on tumour growth
